Measured values published in the supplement of paper PMC4862054.

Assays:
Conditions in all cases: incubation time: 72 h
[1] = test system: MDA-MB-436; assay: normalised viability (% of control), CellTiter-Blue; higher = more viable cells (about 100 = DMSO control)
Method in brief: (§1)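 Breast cancer cell lines were treated for 72 h in 384-well format and measured by CellTiter-Blue fluorescence at 560/590 nm. Results were normalised per plate to vehicle (100) and a positive kill control (0). The entry is normalised viability at a single listed concentration of the series.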

[2] = test system: HCC1599; assay: as above
Method in brief: as §1

[3] = test system: BT-474; assay: as above
Method in brief: as §1

[4] = test system: HCC1143; assay: as above
Method in brief: as §1

[5] = test system: HDQ-P1; assay: as above
Method in brief: as §1

[6] = test system: DU-4475; assay: as above
Method in brief: as §1

[7] = test system: HCC1937; assay: as above
Method in brief: as §1

[8] = test system: MFM-223; assay: as above
Method in brief: as §1

[9] = test system: CAL-51; assay: as above
Method in brief: as §1

[10] = test system: CAL-148; assay: as above
Method in brief: as §1

[11] = test system: Hs578T; assay: as above
Method in brief: as §1

[12] = test system: BT-549; assay: as above
Method in brief: as §1

[13] = test system: CAL-85-1; assay: as above
Method in brief: as §1

[14] = test system: SK-BR-3; assay: as above
Method in brief: as §1

[15] = test system: CAL-120; assay: as above
Method in brief: as §1

[16] = test system: MDA-MB-453; assay: as above
Method in brief: as §1

[17] = test system: MDA-MB-468; assay: as above
Method in brief: as §1

[18] = test system: MDA-MB-231; assay: as above
Method in brief: as §1

[19] = test system: HCC1599; assay: drug sensitivity score (DSS), CellTiter-Glo (DSS (AUC-based score)); higher = stronger drug effect (viability inhibition or cytotoxicity); extreme values may be limits of the assay
Method in brief: (§2)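 Breast cancer cell lines were seeded in 20 µl suspension into 384-well plates already holding compound and incubated for 72 h. Each compound was tested at 5 concentrations in 10-fold steps across its own 10,000-fold range. Plates were normalised to 0.1 % DMSO and a positive kill control after CellTox Green and then CellTiter-Glo readings. The area under the fitted dose-response curve served as the basis for the drug sensitivity score.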

[20] = test system: SK-BR-3; assay: as above
Method in brief: as §2

[21] = test system: MDA-MB-468; assay: as above
Method in brief: as §2

[22] = test system: MDA-MB-231; assay: as above
Method in brief: as §2

Which results are given for CC(C)C[C@H](NC(=O)[C@H](CCc1ccccc1)NC(=O)CN1CCOCC1)C(=O)N[C@@H](Cc1ccccc1)C(=O)N[C@@H](CC(C)C)C(=O)[C@@]1(C)CO1 [Carfilzomib]?
normalised viability ([1]; 1 nM): 96.8%; normalised viability ([1]; 100 nM): 6.97%; normalised viability ([1]; 1000 nM): 10.9%; normalised viability ([2]; 1 nM): 106%; normalised viability ([2]; 100 nM): 64.6%; normalised viability ([2]; 1000 nM): 38.9%; normalised viability ([3]; 1 nM): 107%; normalised viability ([3]; 100 nM): 21.8%; normalised viability ([3]; 1000 nM): 13.9%; normalised viability ([4]; 1 nM): 91.9%; normalised viability ([4]; 100 nM): 23.9%; normalised viability ([4]; 1000 nM): 14.9%; normalised viability ([5]; 0.3 nM): 105%; normalised viability ([5]; 3 nM): 98.9%; normalised viability ([5]; 10 nM): 56.7%; normalised viability ([6]; 0.3 nM): 100%; normalised viability ([6]; 3 nM): 88.3%; normalised viability ([6]; 10 nM): 64.4%; normalised viability ([7]; 1 nM): 74%; normalised viability ([7]; 100 nM): 5.98%; normalised viability ([7]; 1000 nM): 11%; normalised viability ([8]; 1 nM): 83.4%; normalised viability ([8]; 100 nM): 13%; normalised viability ([8]; 1000 nM): 14.4%; normalised viability ([9]; 0.3 nM): 111%; normalised viability ([9]; 3 nM): 102%; normalised viability ([9]; 10 nM): 81.4%; normalised viability ([10]; 0.3 nM): 101%; normalised viability ([10]; 3 nM): 97.8%; normalised viability ([10]; 10 nM): 94.5%; normalised viability ([11]; 1 nM): 126%; normalised viability ([11]; 100 nM): 1.45%; normalised viability ([11]; 1000 nM): 1.15%; normalised viability ([12]; 1 nM): 90%; normalised viability ([12]; 100 nM): 6.79%; normalised viability ([12]; 1000 nM): 5.9%; normalised viability ([13]; 0.3 nM): 107%; normalised viability ([13]; 3 nM): 86%; normalised viability ([13]; 10 nM): 72.1%; normalised viability ([14]; 1 nM): 97.8%; normalised viability ([14]; 100 nM): 16.7%; normalised viability ([14]; 1000 nM): 12.6%; normalised viability ([15]; 1 nM): 100%; normalised viability ([15]; 100 nM): 4.54%; normalised viability ([15]; 1000 nM): 2.9%; normalised viability ([16]; 0.3 nM): 115%; normalised viability ([16]; 3 nM): 38.5%; normalised viability ([16]; 10 nM): 17.7%; normalised viability ([17]; 1 nM): 117%; normalised viability ([17]; 100 nM): 3.17%; normalised viability ([17]; 1000 nM): 2.35%; normalised viability ([18]; 1 nM): 105%; normalised viability ([18]; 100 nM): 2.47%; normalised viability ([18]; 1000 nM): 7.05%; drug sensitivity score [19]: 10.9; drug sensitivity score [20]: 26.9; drug sensitivity score [21]: 29.9; drug sensitivity score [22]: 21.4

For CCc1cnn2c(NCc3ccc[n+]([O-])c3)cc(N3CCCC[C@H]3CCO)nc12 [Dinaciclib], which drug sensitivity score [19] is on record?
The drug sensitivity score was 19.8.

And the drug sensitivity score [20]?
The drug sensitivity score was 25.1.

And the drug sensitivity score [21]?
Its drug sensitivity score is 18.3.

And the drug sensitivity score [22]?
Its drug sensitivity score is 25.4.

What does the source list for Cc1c(C(=O)Nc2ccc(N3C[C@@H](C)O[C@@H](C)C3)nc2)cccc1-c1ccc(OC(F)(F)F)cc1 [Erismodegib]?
drug sensitivity score [19]: 0; drug sensitivity score [20]: 0; drug sensitivity score [21]: 1.28; drug sensitivity score [22]: 0

What does the source list for COc1cc(Nc2ncc(F)c(Nc3ccc4c(n3)N(COP(=O)(O)O)C(=O)C(C)(C)O4)n2)cc(OC)c1OC [Fostamatinib]?
drug sensitivity score [19]: 0; drug sensitivity score [20]: 1.13; drug sensitivity score [21]: 0; drug sensitivity score [22]: 6.92

For CC(C)NC[C@@H](C(=O)N1CCN(c2ncnc3c2[C@H](C)C[C@H]3O)CC1)c1ccc(Cl)cc1 [GDC-0068], which drug sensitivity score [19] is on record?
Its drug sensitivity score is 0.

What about the drug sensitivity score [20] of the same molecule?
Its drug sensitivity score is 6.46.

What about the drug sensitivity score [21] of the same molecule?
The drug sensitivity score was 8.65.

What about the drug sensitivity score [22] of the same molecule?
The drug sensitivity score was 0.

Which drug sensitivity score [19] does the source give for CCCc1cc(C)[nH]c(=O)c1CNC(=O)c1cc(-c2ccnc(N3CCN(C)CC3)c2)cc2c1cnn2C(C)C [GSK343] here?
The drug sensitivity score was 3.37.

What about the drug sensitivity score [20] of the same molecule?
Its drug sensitivity score is 6.24.

What about the drug sensitivity score [21] of the same molecule?
Its drug sensitivity score is 5.85.

And the drug sensitivity score [22]?
Its drug sensitivity score is 4.65.

With COc1cc2c(cc1-c1c(C)noc1C)ncc1[nH]c(=O)n([C@H](C)c3ccccn3)c12 [I-BET151] as the molecule, how does the drug sensitivity score [19] read?
Its drug sensitivity score is 0.

And the drug sensitivity score [20]?
Its drug sensitivity score is 3.27.

And the drug sensitivity score [21]?
Its drug sensitivity score is 3.38.

And the drug sensitivity score [22]?
Its drug sensitivity score is 2.63.

CC(C)n1nc(-c2ccc3oc(N)nc3c2)c2c(N)ncnc21 [INK128] was tested. Which drug sensitivity score [19] did it give?
Its drug sensitivity score is 4.56.

And the drug sensitivity score [20]?
Its drug sensitivity score is 20.3.

And the drug sensitivity score [21]?
The drug sensitivity score was 13.5.

What about the drug sensitivity score [22] of the same molecule?
Its drug sensitivity score is 11.2.

What does the source list for Cc1c(C(=O)Nc2ccc(N3C[C@@H](C)O[C@@H](C)C3)nc2)cccc1-c1ccc(OC(F)(F)F)cc1 [NVP-LDE225]?
normalised viability ([1]; 10 nM): 83%; normalised viability ([1]; 1000 nM): 29.2%; normalised viability ([1]; 10000 nM): 67.3%; normalised viability ([2]; 10 nM): 105%; normalised viability ([2]; 1000 nM): 90.5%; normalised viability ([2]; 10000 nM): 102%; normalised viability ([3]; 10 nM): 96.5%; normalised viability ([3]; 1000 nM): 101%; normalised viability ([3]; 10000 nM): 63.5%; normalised viability ([4]; 10 nM): 108%; normalised viability ([4]; 1000 nM): 102%; normalised viability ([4]; 10000 nM): 96.4%; normalised viability ([5]; 3 nM): 76.2%; normalised viability ([5]; 30 nM): 84%; normalised viability ([5]; 100 nM): 84.9%; normalised viability ([6]; 3 nM): 105%; normalised viability ([6]; 30 nM): 112%; normalised viability ([6]; 100 nM): 96%; normalised viability ([7]; 10 nM): 38.8%; normalised viability ([7]; 1000 nM): 92.7%; normalised viability ([7]; 10000 nM): 82.1%; normalised viability ([8]; 10 nM): 93.5%; normalised viability ([8]; 1000 nM): 93.8%; normalised viability ([8]; 10000 nM): 88.2%; normalised viability ([9]; 3 nM): 105%; normalised viability ([9]; 30 nM): 101%; normalised viability ([9]; 100 nM): 101%; normalised viability ([10]; 3 nM): 99.6%; normalised viability ([10]; 30 nM): 101%; normalised viability ([10]; 100 nM): 106%; normalised viability ([11]; 10 nM): 118%; normalised viability ([11]; 1000 nM): 107%; normalised viability ([11]; 10000 nM): 87%; normalised viability ([12]; 10 nM): 113%; normalised viability ([12]; 1000 nM): 96%; normalised viability ([12]; 10000 nM): 97.3%; normalised viability ([13]; 3 nM): 100%; normalised viability ([13]; 30 nM): 86%; normalised viability ([13]; 100 nM): 104%; normalised viability ([14]; 10 nM): 104%; normalised viability ([14]; 1000 nM): 102%; normalised viability ([14]; 10000 nM): 111%; normalised viability ([15]; 10 nM): 99.9%; normalised viability ([15]; 1000 nM): 92.7%; normalised viability ([15]; 10000 nM): 97%; normalised viability ([16]; 3 nM): 98.9%; normalised viability ([16]; 30 nM): 88.7%; normalised viability ([16]; 100 nM): 105%; normalised viability ([17]; 10 nM): 109%; normalised viability ([17]; 1000 nM): 109%; normalised viability ([17]; 10000 nM): 91.9%; normalised viability ([18]; 10 nM): 121%; normalised viability ([18]; 1000 nM): 102%; normalised viability ([18]; 10000 nM): 82.9%

Which drug sensitivity score [19] does the source give for CN1CCc2c(c3ccccc3n2Cc2ccc(C(=O)NO)cc2)C1 [Tubastatin A] here?
Its drug sensitivity score is 0.

And the drug sensitivity score [20]?
The drug sensitivity score was 1.22.

What about the drug sensitivity score [21] of the same molecule?
The drug sensitivity score was 0.

And the drug sensitivity score [22]?
Its drug sensitivity score is 0.
